Biological target: human factor Xa (Homo sapiens, UniProt P00742)
Assay: Factor Xa assay (chromogenic, substrate S-2765);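 also: purified enzyme preincubated with inhibitor for 10 min before substrate addition, final reaction volume 100 µl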
Assay type: biochemical
Conditions: read-out: Ki(FXa)

human factor Xa, sequence (P00742 235-488 limits assumed): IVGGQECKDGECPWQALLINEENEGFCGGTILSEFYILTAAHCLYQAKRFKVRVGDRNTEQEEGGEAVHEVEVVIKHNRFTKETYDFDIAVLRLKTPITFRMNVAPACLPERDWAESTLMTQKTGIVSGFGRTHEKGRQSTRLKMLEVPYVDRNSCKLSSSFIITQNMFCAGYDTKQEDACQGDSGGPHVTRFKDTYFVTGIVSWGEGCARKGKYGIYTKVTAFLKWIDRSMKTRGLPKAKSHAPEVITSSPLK
human factor Xa, sequence (P00742 41-179 partner limits assumed): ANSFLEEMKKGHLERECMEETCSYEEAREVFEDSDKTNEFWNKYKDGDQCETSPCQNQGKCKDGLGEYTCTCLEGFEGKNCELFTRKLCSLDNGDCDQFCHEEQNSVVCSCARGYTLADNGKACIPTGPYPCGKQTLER

Point of comparison: `CC(C)N1CCC(N(CC(=O)O)C(=O)c2cc3c(Cl)cccc3n2Cc2cc(-c3ccc(Cl)s3)on2)CC1` [Example 234, [{4-Chloro-1-[5-(5-chloro-thiophen-2-yl)-isoxazol-3-ylmethyl]-1H-indole-2-carbonyl}-(1-isopropyl-piperidin-4-yl)-amino]-acetic acid], Ki 56 nM. Against it:
- CCOC(=O)CN(C(=O)c1cc2c(Cl)cccc2n1Cc1cc(-c2ccc(Cl)s2)on1)C1CCN(C(C)C)CC1 [Example 228, [{4-Chloro-1-[5-(5-chloro-thiophen-2-yl)-isoxazol-3-ylmethyl]-1H-indole-2-carbonyl}-(1-isopropyl-piperidin-4-yl)-amino]-acetic acid ethyl ester] — within 1.5-fold, 51 nM
- CC(C)N1CCC(N(CC(=O)O)C(=O)c2cc3c(C(F)(F)F)cccc3n2Cc2cc(-c3ccc(Cl)s3)on2)CC1 [Example 229, [{1-[5-(5-Chloro-thiophen-2-yl)-isoxazol-3-ylmethyl]-4-trifluoromethyl-1H-indole-2-carbonyl}-(1-isopropyl-piperidin-4-yl)-amino]-acetic acid] — 3.1-fold higher, 172 nM
- Cc1ccc(C)c2c1cc(C(=O)N(CC(=O)O)C1CCN(C(C)C)CC1)n2Cc1cc(-c2ccc(Cl)s2)on1 [Example 230, [{1-[5-(5-Chloro-thiophen-2-yl)-isoxazol-3-ylmethyl]-4,7-dimethyl-1H-indole-2-carbonyl}-(1-isopropyl-piperidin-4-yl)-amino]-acetic acid] — 4.7-fold lower, 12 nM
- COc1ccc(OC)c2c1cc(C(=O)N(CC(=O)O)C1CCN(C(C)C)CC1)n2Cc1cc(-c2ccc(Cl)s2)on1 [Example 231, [{1-[5-(5-Chloro-thiophen-2-yl)-isoxazol-3-ylmethyl]-4,7-dimethoxy-1H-indole-2-carbonyl}-(1-isopropyl-piperidin-4-yl)-amino]-acetic acid] — 2.8-fold lower, 20 nM
- CC(C)N1CCC(N(CC(=O)O)C(=O)c2cc3c(Cl)ccc(Cl)c3n2Cc2cc(-c3ccc(Cl)s3)on2)CC1 [Example 232, [{4,7-Dichloro-1-[5-(5-chloro-thiophen-2-yl)-isoxazol-3-ylmethyl]-1H-indole-2-carbonyl}-(1-isopropyl-piperidin-4-yl)-amino]-acetic acid] — within 1.5-fold, 55 nM
- CC(C)N1CCC(N(CC(=O)O)C(=O)c2cc3cc(Cl)cc(Cl)c3n2Cc2cc(-c3ccc(Cl)s3)on2)CC1 [Example 233, [{5,7-Dichloro-1-[5-(5-chloro-thiophen-2-yl)-isoxazol-3-ylmethyl]-1H-indole-2-carbonyl}-(1-isopropyl-piperidin-4-yl)-amino]-acetic acid] — within 1.5-fold, 74 nM
- CC(C)OC(=O)c1ccc2c(c1)cc(C(=O)NC1CCN(C(C)C)CC1)n2Cc1cc(-c2ccc(Cl)s2)on1 [Example 235, 1-[5-(5-Chloro-thiophen-2-yl)-isoxazol-3-ylmethyl]-2-(1-isopropyl-piperidin-4-ylcarbamoyl)-1H-indole-5-carboxylic acid isopropyl ester] — within 1.5-fold, 42 nM
- CC(C)N1CCC(NC(=O)c2cc3cc(C(=O)O)ccc3n2Cc2cc(-c3ccc(Cl)s3)on2)CC1 [Example 236, 1-[5-(5-Chloro-thiophen-2-yl)-isoxazol-3-ylmethyl]-2-(1-isopropyl-piperidin-4-ylcarbamoyl)-1H-indole-5-carboxylic acid] — 5.6-fold lower, 10 nM
- CC(C)N1CCC(NC(=O)c2cc3cc(CO)ccc3n2Cc2cc(-c3ccc(Cl)s3)on2)CC1 [Example 237, 1-[5-(5-Chloro-thiophen-2-yl)-isoxazol-3-ylmethyl]-5-hydroxymethyl-1H-indole-2-carboxylic acid (1-isopropyl-piperidin-4-yl)-amide] — 19-fold lower, 3 nM
- CCOC(=O)c1ccc2c(c1)cc(C(=O)NC1CCN(C(C)C)CC1)n2Cc1cc(-c2ccc(Cl)s2)on1 [Example 238, 1-[5-(5-Chloro-thiophen-2-yl)-isoxazol-3-ylmethyl]-2-(1-isopropyl-piperidin-4-ylcarbamoyl)-1H-indole-5-carboxylic acid ethyl ester] — 5.1-fold lower, 11 nM

Source: patent US20090069565A1, “NEW INDOLE DERIVATIVES AS FACTOR XA INHIBITORS” (priority 2001, published 2009)
